For 25 compounds, IC50, EC50 and inhibition results are on record in patent publication US10092529B2, “Necrosis inhibitors” (National Institute of Biological Sciences, Beijing, priority 2014, dated 2018).

Broadly, the IC50 is the point on the concentration scale where inhibition reaches its midpoint. The EC50 is the concentration needed to bring the measured effect to its halfway point. The term inhibition denotes the percentage by which the read-out fell short of the control.

Assay [1] deals with hRIP1 kinase (recombinant full-length RIPK1 protein with N-terminal GST-tag) (Homo sapiens (Human), UniProt Q13546). Put plainly: Kinase assay of RIPK1 (ADP-Glo). The class given is biochemical. The following applies: for IC50: 161 nM RIPK1, 50 uM ATP, 20 uM MBP, 90 min. How it is done:
Materials: Recombinant full-length RIPK1 protein with N-terminal GST-tag (Cat#R07-34G) was purchased from SignalChem. The ADP-Glo™ kinase assay kit (Cat#V9102) was from Promega. MBP (cat# M2295) protein and all the other chemicals were from Sigma. The 384-well assay plates (Cat#3674, white, opaque) were purchased from Corning.
Kinase activity assay and data analysis: The RIPK1 kinase assay was performed in white 384-well plate. The assay buffer contained 25 mM HEPES (pH7.2), 20 mM MgCl2, 12.5 mM MnCl2, 5 mM EGTA, 2 mM EDTA, 12.5 mM β-glycerol phosphate and 2 mM DTT. RIPK1 was first incubated with compounds or DMSO control for […], then ATP/MBP substrate mixture was added to initiate the reaction. The final concentration of RIPK1 was 161 nM, while the final concentration of ATP was 50 uM, and MBP 20 uM. After 90 min reaction at room temperature, the ADP-Glo reagent and detection solution were added following the technical manual of ADP-Glo™ kinase assay kit (Promega). The luminescence was measured on PerkinElmer Enspire. The data was analyzed using Graphpad Prism (GraphPad Software; www.graphpad.com). The curves were fitted using a non-linear regression model with a sigmoidal dose response.

For the next assay, the system named is HT-29 cells. Put plainly: Necrosis assay: TNF-α/Smac mimetic/z-VAD induced necrosis, cell viability by CellTiter-Glo. The class given is cell-based. How it is done: HT-29 cells were cultured in McCoy's 5A culture medium (Invitrogen). On day one, HT-29 cells were plated in 96-well assay plates at density of 2,500-3,500 cells per well. On day two, necrosis were induced by adding 20 ng/ml TNF-α (T), 100 nM Smac mimetic (S), and […] z-VAD (Z). At the same time, […] compound from a chemical library of ˜200,000 compounds was delivered into each well. After 24 hrs treatment, cell viability was determined by measuring ATP level using the CellTiter-Glo Luminescent Cell Viability Assay kit. A CellTiter-Glo Assay (Promega) was performed according to the manufacturer's instructions Luminescence was recorded with a PerkinElmer EnSpire Multimode Plate Reader. Survived cells were normalized to those cells treated with DMSO. Nec-1 was used as a positive control for screening necrosis inhibitors. Data are represented as mean±standard deviation of duplicates.
Dose-dependent inhibition of necrosis by compound #9 and the derivative compounds in HT-29 cells were determined by measuring ATP levels as described above.

[2] abbreviates: Homo sapiens, necrosis induced by TNF-α/Smac mimetic/z-VAD, 24 hrs, ATP level, read-out: Cell viability assay, EC50.
Setting [3] is: inhibition of necrosis, ATP levels, range given in nM, read-out: EC50 (necrosis activity).
[4] abbreviates: Homo sapiens, inhibition of necrosis, ATP levels, range given in uM, read-out: EC50 (necrosis activity).

Molecules are shown by their SMILES. Like-named read-outs stand apart in the source and are kept apart here.

Sequence of hRIP1 kinase (recombinant full-length RIPK1 protein with N-terminal GST-tag) (Q13546 whole entry): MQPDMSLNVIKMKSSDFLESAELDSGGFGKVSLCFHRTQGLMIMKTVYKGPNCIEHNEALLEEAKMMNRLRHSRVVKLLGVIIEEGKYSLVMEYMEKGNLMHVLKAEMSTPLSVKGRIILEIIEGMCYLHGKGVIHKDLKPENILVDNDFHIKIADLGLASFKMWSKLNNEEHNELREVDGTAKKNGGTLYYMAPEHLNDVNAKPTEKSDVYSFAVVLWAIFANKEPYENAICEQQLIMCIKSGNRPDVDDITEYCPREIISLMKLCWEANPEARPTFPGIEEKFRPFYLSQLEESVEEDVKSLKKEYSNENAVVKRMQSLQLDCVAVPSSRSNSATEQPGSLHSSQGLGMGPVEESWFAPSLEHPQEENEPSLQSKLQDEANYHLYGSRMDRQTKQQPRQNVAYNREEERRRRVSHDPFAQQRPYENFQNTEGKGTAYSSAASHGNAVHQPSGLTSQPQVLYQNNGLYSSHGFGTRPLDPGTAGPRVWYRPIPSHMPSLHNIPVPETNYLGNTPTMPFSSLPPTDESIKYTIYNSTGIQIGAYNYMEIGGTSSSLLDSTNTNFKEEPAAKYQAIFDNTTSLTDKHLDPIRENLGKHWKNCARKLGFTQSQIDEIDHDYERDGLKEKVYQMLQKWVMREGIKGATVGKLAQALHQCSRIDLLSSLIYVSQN

For `CCC(C)(C)C(=O)N1CCC1c1ccccc1` (centres unmarked) [Compound 2, 2,2-dimethyl-1-(2-phenylazetidin-1-yl)butan-1-one], the IC50 in assay [1] was 34.8 nM. The EC50 is 29.6 nM in the assay with HT-29 cells (setting [2]) and 1 to 1000 nM in the assay with HT-29 cells (setting [3]).

Take `CCC(C)(C)C(=O)N1CCCC1c1cc(F)cc(F)c1F` (centres unmarked) [Compound 10, 2,2-dimethyl-1-(2-(2,3,5-trifluorophenyl)pyrrolidin-1-yl)butan-1-one]: the IC50 in assay [1] was 22.5 nM. Moreover, the EC50 with HT-29 cells (setting [2]) was 9.88 nM; in the assay on HT-29 cells (setting [3]) it was 1 to 1000 nM.

For the compound `CCC(C)(C)C(=O)N1C[C@@H](O)C[C@H]1c1ccccc1` [Compound 13, 1-((2S,4S)-4-hydroxy-2-phenylpyrrolidin-1-yl)-2,2-dimethylbutan-1-one], the inhibition at 2 µM in assay [1] was found to be 69%. The EC50 in the assay with HT-29 cells (setting [4]) was 1000 to 10000 nM; with HT-29 cells (setting [2]), 2620 nM.

With `CCC(C)(C)C(=O)N1C[C@H](O)C[C@H]1c1ccccc1` [Compound 15, 1-((2S,4R)-4-hydroxy-2-phenylpyrrolidin-1-yl)-2,2-dimethylbutan-1-one], the IC50 in assay [1] turned out to be 460 nM. Further, the values for the EC50 in the assay with HT-29 cells (setting [2]) and with HT-29 cells (setting [3]) were 396 nM and 1 to 1000 nM, respectively.

`CCC(C)(C)C(=O)N1C(=O)C[C@H]1c1ccccc1` [Compound 24, (S)-1-(2,2-dimethylbutanoyl)-4-phenylazetidin-2-one]: the IC50 in assay [1] came out at 19.8 nM. Further, the values for the EC50 in the assay on HT-29 cells (setting [2]) and with HT-29 cells (setting [3]) were 7 nM and 1 to 1000 nM, respectively.

Consider `CCC(C)(C)C(=O)N1C(=O)CC1c1cccc(N=[N+]=[N-])c1` (centres unmarked) [Compound 25, 4-(3-azidophenyl)-1-(2,2-dimethylbutanoyl)azetidin-2-one], for which the IC50 in assay [1] is 152 nM. The half-maximal effective concentration (EC50) in the assay on HT-29 cells (setting [2]) was 556 nM; with HT-29 cells (setting [3]), 1 to 1000 nM.

Turning to `CCC(C)(C)C(=O)N1C(=O)N(C)C[C@H]1c1ccccc1` [Compound 31, (R)-3-(2,2-dimethylbutanoyl)-1-methyl-4-phenylimidazolidin-2-one], the IC50 in assay [1] came to 1060 nM. Also, the concentration giving a half-maximal response (EC50) was 609 nM with HT-29 cells (setting [2]) and 1 to 1000 nM in the assay with HT-29 cells (setting [3]).

Take `C=CC(C)(C)C(=O)N1C(=O)C[C@H]1c1ccccc1` [Compound 38, (S)-1-(2,2-dimethylbut-3-enoyl)-4-phenylazetidin-2-one]: the IC50 in assay [1] is 13.7 nM. Besides, the EC50 was 8.39 nM in the assay on HT-29 cells (setting [2]) and 1 to 1000 nM in the assay on HT-29 cells (setting [3]).

For the compound `CCC(C)(C)C(=O)N1CC[C@H](O)[C@H]1c1ccccc1` [Compound S1, 1-((2R,3S)-3-hydroxy-2-phenylpyrrolidin-1-yl)-2,2-dimethylbutan-1-one], the EC50 in the assay with HT-29 cells (setting [4]) was 1000 to 10000 nM.

As to `CCC(C)(C)C(=O)N1CC[C@@H](O)[C@H]1c1ccccc1` [Compound S2, 1-((2R,3R)-3-hydroxy-2-phenylpyrrolidin-1-yl)-2,2-dimethylbutan-1-one], the EC50 in the assay on HT-29 cells (setting [4]) is 1000 to 100000 nM.

Take `CCC(C)(C)C(=O)N1CCC(=O)[C@H]1c1ccccc1` [Compound S3, (R)-1-(2,2-dimethylbutanoyl)-2-phenylpyrrolidin-3-one]: the EC50 in the assay with HT-29 cells (setting [4]) lay in the range of 1000 to 10000 nM.

With `CCC(C)(C)C(=O)N1C[C@@H](O)[C@H]1c1ccccc1` [Compound S4, 1-((2R,3R)-3-hydroxy-2-phenylazetidin-1-yl)-2,2-dimethylbutan-1-one], in the assay on HT-29 cells (setting [4]), the EC50 is 1000 to 10000 nM.

With `CCC(C)(C)C(=O)N1C[C@H](O)[C@H]1c1ccccc1` [Compound S5, 1-((2R,3S)-3-hydroxy-2-phenylazetidin-1-yl)-2,2-dimethylbutan-1-one], the EC50 in the assay with HT-29 cells (setting [4]) lay in the range of 1000 to 100000 nM.

With `CCS(=O)(=O)N1CC[C@H]1c1ccccc1` [Compound S6, (S)-1-(ethylsulfonyl)-2-phenylazetidine], the EC50 in the assay with HT-29 cells (setting [4]) fell in the range of 1000 to 100000 nM.

For `CC(C)(C)[S+]([O-])N1CC[C@H]1c1ccccc1` (stereo partly drawn) [Compound S7, (2S)-1-(tert-butylsulfinyl)-2-phenylazetidine], the EC50 in the assay with HT-29 cells (setting [4]) fell in the range of 1000 to 10000 nM.

For `CC(C)(C)S(=O)(=O)N1CC[C@H]1c1ccccc1` [Compound S8, (S)-1-(tert-butylsulfonyl)-2-phenylazetidine], the EC50 in the assay on HT-29 cells (setting [4]) was 1000 to 100000 nM.

Turning to `CC(F)(F)C(C)(C)C(=O)N1CC[C@H]1c1ccccc1` [Compound S9], the EC50 in the assay with HT-29 cells (setting [3]) lay within 1 to 1000 nM.

Consider `CC(F)(F)C(C)(C)C(=O)N1CCCC1c1ccccc1` (centres unmarked) [Compound S10, 3,3-difluoro-2,2-dimethyl-1-(2-phenylpyrrolidin-1-yl) butan-1-one], for which the EC50 in the assay on HT-29 cells (setting [3]) lay in the range of 1 to 1000 nM.

Turning to `CC(C)(C)C(=O)N1CCCC1c1ccccc1` (centres unmarked) [Compound S11, 2,2-dimethyl-1-(2-phenylpyrrolidin-1-yl)propan-1-one], in the assay on HT-29 cells (setting [3]), the concentration giving a half-maximal response (EC50) was in the range of 1 to 1000 nM.

Regarding `CC(C)(C)C(=O)N1CC[C@H]1c1ccccc1` [Compound S12, (S)-2,2-dimethyl-1-(2-phenylazetidin-1-yl)propan-1-one], the 50% effective concentration (EC50) in the assay on HT-29 cells (setting [3]) was in the range of 1 to 1000 nM.

Turning to `CC(F)(F)C(C)(C)C(=O)N1CCC=C[C@H]1C1CCCCC1` [Compound S13], the EC50 with HT-29 cells (setting [4]) lay within 1000 to 100000 nM.

For the compound `CC(F)(F)C(C)(C)C(=O)N1C=CC=CC1C1CCCCC1` (centres unmarked) [Compound S14], in the assay with HT-29 cells (setting [4]), the EC50 was in the range of 1000 to 100000 nM.

As to `CC(F)(F)C(C)(C)C(=O)N1C=CC=CC1c1ccccc1` (centres unmarked) [Compound S15], the EC50 in the assay with HT-29 cells (setting [4]) lay within 1000 to 100000 nM.

As for `CC(F)(F)C(C)(C)C(=O)N1CC=C[C@H]1c1ccccc1` [Compound S16], the EC50 in the assay with HT-29 cells (setting [4]) was 1000 to 100000 nM.

On to `CC(F)(F)C(C)(C)C(=O)N1CCC=C[C@H]1c1ccccc1` [Compound S17], for which the EC50 with HT-29 cells (setting [4]) was in the range of 1000 to 100000 nM.
